Experimental data reported in US11034685B2, “Aminopyridine derivatives as TAM family kinase inhibitors” (SignalChem Lifesciences Corporation, priority 2013, dated 2021).

Assays:
Format in all cases: biochemical
[1] = biological target: T1, Recombinant human Tyro3 (455-end) (Homo sapiens, UniProt Q06418); test: Kinase enzymatic activity assay ([33P]-ATP phosphate transfer), Tyro3; details: inhibitory activity on Tyro3; class symbols
T1 construct: GST (N); made in house; host or cells: Sf9 insect cells (baculovirus)
T1 sequence (Q06418 455-890 limits assumed): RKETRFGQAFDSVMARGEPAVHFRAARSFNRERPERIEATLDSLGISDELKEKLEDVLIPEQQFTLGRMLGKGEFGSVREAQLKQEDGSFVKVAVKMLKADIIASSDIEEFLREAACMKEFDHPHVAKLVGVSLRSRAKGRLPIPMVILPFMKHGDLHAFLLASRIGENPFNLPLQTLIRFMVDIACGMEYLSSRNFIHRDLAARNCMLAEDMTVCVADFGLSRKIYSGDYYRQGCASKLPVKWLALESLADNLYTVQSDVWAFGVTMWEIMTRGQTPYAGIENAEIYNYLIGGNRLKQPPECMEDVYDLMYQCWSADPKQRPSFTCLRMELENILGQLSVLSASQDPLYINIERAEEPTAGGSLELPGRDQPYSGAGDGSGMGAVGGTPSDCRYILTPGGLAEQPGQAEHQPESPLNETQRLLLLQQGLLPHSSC
Procedure, shortened: (§1)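 Kinases were N-terminal GST-tagged constructs expressed in Sf9 cells, with poly(Glu:Tyr 4:1) as substrate. Reactions ran in MOPS buffer pH 7.2 with MgCl2 and [33P]-ATP (250 μM cocktail stock) for 30 min at room temperature. Filter-bound radioactivity gave % inhibition, and IC50 was taken from serial dilutions.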

human Axl (473-end) = biological target: T2, human Axl (473-end) (Homo sapiens, UniProt P30530); test: Kinase enzymatic activity assay ([33P]-ATP phosphate transfer), Axl; details: inhibitory activity on Axl; class symbols
T2 construct: GST (N); made in house; host or cells: Sf9 insect cells (baculovirus)
T2 sequence (P30530 473-894 limits assumed): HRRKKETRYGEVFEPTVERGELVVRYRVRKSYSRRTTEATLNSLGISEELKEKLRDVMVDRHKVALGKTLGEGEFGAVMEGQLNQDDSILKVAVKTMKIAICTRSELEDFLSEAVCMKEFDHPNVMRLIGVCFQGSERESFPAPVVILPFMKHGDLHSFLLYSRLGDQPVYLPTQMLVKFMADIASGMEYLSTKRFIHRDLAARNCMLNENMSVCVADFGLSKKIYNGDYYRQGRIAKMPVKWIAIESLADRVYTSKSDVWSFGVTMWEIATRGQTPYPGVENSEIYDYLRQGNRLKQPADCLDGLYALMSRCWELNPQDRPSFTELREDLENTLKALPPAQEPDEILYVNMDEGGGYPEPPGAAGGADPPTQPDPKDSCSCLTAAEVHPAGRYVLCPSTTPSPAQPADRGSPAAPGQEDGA
Procedure, shortened: as §1

human Mer (578-872) = biological target: T3, human Mer (578-872) (Homo sapiens, UniProt Q12866); test: Kinase enzymatic activity assay ([33P]-ATP phosphate transfer), Mer; details: inhibitory activity on Mer; class symbols
T3 construct: GST (N); made in house; host or cells: Sf9 insect cells (baculovirus)
T3 sequence (Q12866 578-872): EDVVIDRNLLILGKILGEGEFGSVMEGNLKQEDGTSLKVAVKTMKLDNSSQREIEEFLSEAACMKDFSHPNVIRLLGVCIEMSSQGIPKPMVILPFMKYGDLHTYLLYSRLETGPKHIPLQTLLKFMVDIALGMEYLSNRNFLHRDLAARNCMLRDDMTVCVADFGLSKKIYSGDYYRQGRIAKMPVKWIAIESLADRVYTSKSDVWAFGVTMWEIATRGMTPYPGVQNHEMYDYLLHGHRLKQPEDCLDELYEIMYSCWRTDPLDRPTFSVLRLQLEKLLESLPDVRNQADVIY
Procedure, shortened: as §1

Nc1ncc(-c2cnn(C3CCOCC3)c2)cc1-c1ccc(-c2ccccc2)o1 [3-(5-phenylfuran-2-yl)-5-(1-(tetrahydro-2H-pyran-4-yl)-1H-pyrazol-4-yl)pyridin-2-amine]
IC50 [1]: 1000 to 10000 nM
IC50 (human Axl (473-end)): 1000 to 10000 nM
IC50 (human Mer (578-872)): 1000 to 10000 nM

Nc1ncc(-c2cnn(C3CCNCC3)c2)cc1-c1cc(-c2ccccc2)on1 [3-(5-phenylisoxazol-3-yl)-5-(1-(piperidin-4-yl)-1H-pyrazol-4-yl)pyridin-2-amine]
IC50 [1]: < 500 nM
IC50 (human Axl (473-end)): < 500 nM
IC50 (human Mer (578-872)): < 500 nM

Nc1ncc(-c2cnn(C3CCOCC3)c2)cc1-c1cc(-c2ccccc2)on1 [3-(5-phenylisoxazol-3-yl)-5-(1-(tetrahydro-2H-pyran-4-yl)-1H-pyrazol-4-yl)pyridin-2-amine]
IC50 [1]: < 500 nM
IC50 (human Axl (473-end)): < 500 nM
IC50 (human Mer (578-872)): 1000 to 10000 nM

Nc1ncc(-c2cnn(C3CCNCC3)c2)cc1-c1ncc(-c2ccccc2)o1 [3-(5-phenyloxazol-2-yl)-5-(1-(piperidin-4-yl)-1H-pyrazol-4-yl)pyridin-2-amine]
IC50 [1]: < 500 nM
IC50 (human Axl (473-end)): < 500 nM
IC50 (human Mer (578-872)): < 500 nM

Nc1ncc(-c2cnn(C3CCOCC3)c2)cc1-c1ncc(-c2ccccc2)o1 [3-(5-phenyloxazol-2-yl)-5-(1-(tetrahydro-2H-pyran-4-yl)-1H-pyrazol-4-yl)pyridin-2-amine]
IC50 [1]: < 500 nM
IC50 (human Axl (473-end)): < 500 nM
IC50 (human Mer (578-872)): > 10000 nM

CCN1CCC(n2cc(-c3cnc(N)c(-c4nc(-c5ccccc5)no4)c3)cn2)CC1 [5-(1-(1-ethylpiperidin-4-yl)-1H-pyrazol-4-yl)-3-(3-phenyl-1,2,4-oxadiazol-5-yl)pyridin-2-amine]
IC50 [1]: < 500 nM
IC50 (human Axl (473-end)): < 500 nM
IC50 (human Mer (578-872)): < 500 nM

CCN1CCC(n2cc(-c3cnc(N)c(-c4ncc(-c5ccccc5)o4)c3)cn2)CC1 [5-(1-(1-ethylpiperidin-4-yl)-1H-pyrazol-4-yl)-3-(5-phenyloxazol-2-yl)pyridin-2-amine]
IC50 [1]: < 500 nM
IC50 (human Axl (473-end)): < 500 nM
IC50 (human Mer (578-872)): < 500 nM

CN1CCC(n2cc(-c3cnc(N)c(-c4nc(-c5ccccc5)no4)c3)cn2)CC1 [5-(1-(1-methylpiperidin-4-yl)-1H-pyrazol-4-yl)-3-(3-phenyl-1,2,4-oxadiazol-5-yl)pyridin-2-amine]
IC50 [1]: < 500 nM
IC50 (human Axl (473-end)): < 500 nM
IC50 (human Mer (578-872)): < 500 nM

CN1CCC(n2cc(-c3cnc(N)c(-c4noc(-c5ccccc5)n4)c3)cn2)CC1 [5-(1-(1-methylpiperidin-4-yl)-1H-pyrazol-4-yl)-3-(5-phenyl-1,2,4-oxadiazol-3-yl)pyridin-2-amine]
IC50 [1]: < 500 nM
IC50 (human Axl (473-end)): < 500 nM
IC50 (human Mer (578-872)): 500 to 1000 nM

CN1CCC(n2cc(-c3cnc(N)c(-c4cc(-c5ccccc5)on4)c3)cn2)CC1 [5-(1-(1-methylpiperidin-4-yl)-1H-pyrazol-4-yl)-3-(5-phenylisoxazol-3-yl)pyridin-2-amine]
IC50 [1]: < 500 nM
IC50 (human Axl (473-end)): < 500 nM
IC50 (human Mer (578-872)): < 500 nM

Nc1ncc(-c2cnn(C3CCNCC3)c2)cc1-c1nnc(-c2nc(C(F)(F)F)cs2)o1 [5-(1-(piperidin-4-yl)-1H-pyrazol-4-yl)-3-(5-(4-(trifluoromethyl)thiazol-2-yl)-1,3,4-oxadiazol-2-yl)pyridin-2-amine]
IC50 [1]: < 500 nM
IC50 (human Axl (473-end)): < 500 nM
IC50 (human Mer (578-872)): < 500 nM

Nc1ncc(-c2cnn(C3CCNCC3)c2)cc1-c1nnc(-c2cnccn2)o1 [5-(1-(piperidin-4-yl)-1H-pyrazol-4-yl)-3-(5-(pyrazin-2-yl)-1,3,4-oxadiazol-2-yl)pyridin-2-amine]
IC50 [1]: < 500 nM
IC50 (human Axl (473-end)): < 500 nM
IC50 (human Mer (578-872)): 500 to 1000 nM

Nc1ncc(-c2cnn(C3CCNCC3)c2)cc1-c1nnc(-c2ccccn2)o1 [5-(1-(piperidin-4-yl)-1H-pyrazol-4-yl)-3-(5-(pyridin-2-yl)-1,3,4-oxadiazol-2-yl)pyridin-2-amine]
IC50 [1]: < 500 nM
IC50 (human Axl (473-end)): < 500 nM
IC50 (human Mer (578-872)): < 500 nM

Nc1ncc(-c2cnn(C3CCNCC3)c2)cc1-c1nnc(-c2cccnc2)o1 [5-(1-(piperidin-4-yl)-1H-pyrazol-4-yl)-3-(5-(pyridin-3-yl)-1,3,4-oxadiazol-2-yl)pyridin-2-amine]
IC50 [1]: < 500 nM
IC50 (human Axl (473-end)): < 500 nM
IC50 (human Mer (578-872)): < 500 nM

Nc1ncc(-c2cnn(C3CCNCC3)c2)cc1-c1ncc(-c2cccnc2)o1 [5-(1-(piperidin-4-yl)-1H-pyrazol-4-yl)-3-(5-(pyridin-3-yl)oxazol-2-yl)pyridin-2-amine]
IC50 [1]: < 500 nM
IC50 (human Axl (473-end)): < 500 nM
IC50 (human Mer (578-872)): < 500 nM

Nc1ncc(-c2cnn(C3CCNCC3)c2)cc1-c1nnc(-c2nccs2)o1 [5-(1-(piperidin-4-yl)-1H-pyrazol-4-yl)-3-(5-(thiazol-2-yl)-1,3,4-oxadiazol-2-yl)pyridin-2-amine]
IC50 [1]: < 500 nM
IC50 (human Axl (473-end)): < 500 nM
IC50 (human Mer (578-872)): < 500 nM

Nc1ncc(-c2cnn(C3CCCCC3)c2)cc1-c1nc(-c2c(Cl)cccc2Cl)no1 [5-(1-cyclohexyl-1H-pyrazol-4-yl)-3-(3-(2,6-dichlorophenyl)-1,2,4-oxadiazol-5-yl)pyridin-2-amine]
IC50 [1]: < 500 nM
IC50 (human Axl (473-end)): 1000 to 10000 nM
IC50 (human Mer (578-872)): 1000 to 10000 nM

Nc1ncc(-c2cnn(C3CCCCC3)c2)cc1-c1nc(-c2ccccc2)no1 [5-(1-cyclohexyl-1H-pyrazol-4-yl)-3-(3-phenyl-1,2,4-oxadiazol-5-yl)pyridin-2-amine]
IC50 [1]: 1000 to 10000 nM
IC50 (human Axl (473-end)): 1000 to 10000 nM
IC50 (human Mer (578-872)): > 10000 nM

Nc1ncc(-c2cnn(C3CCCCC3)c2)cc1-c1nnc(-c2c(Cl)cccc2Cl)o1 [5-(1-cyclohexyl-1H-pyrazol-4-yl)-3-(5-(2,6-dichlorophenyl)-1,3,4-oxadiazol-2-yl)pyridin-2-amine]
IC50 [1]: > 10000 nM
IC50 (human Axl (473-end)): > 10000 nM
IC50 (human Mer (578-872)): > 10000 nM

Nc1ncc(-c2cnn(C3CCCCC3)c2)cc1-c1noc(-c2ccccc2)n1 [5-(1-cyclohexyl-1H-pyrazol-4-yl)-3-(5-phenyl-1,2,4-oxadiazol-3-yl)pyridin-2-amine]
IC50 [1]: > 10000 nM
IC50 (human Axl (473-end)): > 10000 nM
IC50 (human Mer (578-872)): > 10000 nM

Nc1ncc(-c2cnn(C3CCCCC3)c2)cc1-c1nnc(-c2ccccc2)o1 [5-(1-cyclohexyl-1H-pyrazol-4-yl)-3-(5-phenyl-1,3,4-oxadiazol-2-yl)pyridin-2-amine]
IC50 [1]: 1000 to 10000 nM
IC50 (human Axl (473-end)): 1000 to 10000 nM
IC50 (human Mer (578-872)): > 10000 nM

Nc1ncc(-c2cnn(C3CCCCC3)c2)cc1-c1ccc(-c2ccccc2)o1 [5-(1-cyclohexyl-1H-pyrazol-4-yl)-3-(5-phenylfuran-2-yl)pyridin-2-amine]
IC50 [1]: 1000 to 10000 nM
IC50 (human Axl (473-end)): 1000 to 10000 nM
IC50 (human Mer (578-872)): 1000 to 10000 nM

Nc1ncc(-c2cnn(C3CCCCC3)c2)cc1-c1cc(-c2ccccc2)on1 [5-(1-cyclohexyl-1H-pyrazol-4-yl)-3-(5-phenylisoxazol-3-yl)pyridin-2-amine]
IC50 [1]: 1000 to 10000 nM
IC50 (human Axl (473-end)): 1000 to 10000 nM
IC50 (human Mer (578-872)): 1000 to 10000 nM

Nc1ncc(-c2cnn(C3CCCCC3)c2)cc1-c1ncc(-c2ccccc2)o1 [5-(1-cyclohexyl-1H-pyrazol-4-yl)-3-(5-phenyloxazol-2-yl)pyridin-2-amine]
IC50 [1]: 1000 to 10000 nM
IC50 (human Axl (473-end)): 1000 to 10000 nM
IC50 (human Mer (578-872)): > 10000 nM

Nc1ncc(-c2cnn(C3CCN(C(=O)C4CC4)CC3)c2)cc1-c1nc(-c2ccccc2)no1 [(4-(4-(6-amino-5-(3-phenyl-1,2,4-oxadiazol-5-yl)pyridin-3-yl)-1H-pyrazol-1-yl)piperidin-1-yl)(cyclopropyl)methanone]
IC50 [1]: 1000 to 10000 nM
IC50 (human Axl (473-end)): 1000 to 10000 nM
IC50 (human Mer (578-872)): 1000 to 10000 nM
